Source: US11602510B2, “Agent for use in the treatment of dyslipidemia” (Flexopharm Brain GMBH & Co. KG, priority 2017, dated 2023)
“Also recorded” adds a separate entry of the source. Where two headings read alike, the source gives them in different places.

Legend:
HMG-CoA synthase = HMG-CoA synthase mRNA expression by reverse transcriptase-polymerase chain reaction; type: in vivo; settings: RT-PCR, FIG. 5
LDL receptor = LDL receptor expression by reverse transcriptase-polymerase chain reaction in the liver; type: in vivo; settings: RT-PCR in the liver following treatment, FIG. 8
PCSK9 = PCSK9 expression by reverse transcriptase-polymerase chain reaction; type: in vivo; settings: RT-PCR, FIG. 7
[1] = system: patients whose LDL cholesterol level had been adjusted to a stable level by atorvastatin; experiment: Patient study: propionate added to stable atorvastatin treatment, LDL value; type: in vivo, human; settings: for LDL value / LDL cholesterol level (in words): 2×500 mg propionate for more than eight weeks in addition to atorvastatin, five patients, FIG. 9
Method: The decrease appears to be greatest in patients showing the highest initial LDL value,
FIG. 10 is a block diagram showing the result of a patient study. On the left, the diagram indicates the averaged initial value of the patients stable through administration of atorvastatin, on the right the averaged LDL value of the patients after taking 2×500 mg of propionate daily for at least eight weeks.
The patient study attests to the positive influence of 2×500 mg of sodium propionate in addition to atorvastatin.

pigs = settings: comparatively higher doses; cited from earlier work
patients = settings: high doses, cited from earlier work
[2] = system: hypercholesterolemic mouse model; experiment: LDL cholesterol in the hypercholesterolemic mouse model (high fat diet); type: in vivo
Source text: HF: High Fat (60 KJ % fat content); PA: Propionic Acid. […] HFD: High Fat Diet; PA: Propionic Acid.

[3] = system: patients with dyslipidemia; experiment: LDL cholesterol in patients with dyslipidemia treated with propionic acid; type: in vivo, human; settings: n=24, initial LDL cholesterol >110 mg/dl, after 2-6 months of treatment, FIG. 4
HMG-CoA reductase = HMG-CoA reductase expression by reverse transcriptase-polymerase chain reaction; type: in vivo; settings: RT-PCR, FIG. 6
rats = settings: oral and rectal administration of high doses; cited from earlier work
[4] = system: rats with normal and cholesterol-rich diets; settings: cited from earlier work

Row | Compound | expression of HMG-CoA synthase at mRNA level (HMG-CoA synthase) | expression of the LDL receptor (LDL receptor) | expression of PCSK9 (PCSK9) | reduction of the LDL value on average ([1]; 2×500 mg propionate daily for at least eight weeks on top of stable atorvastatin, FIG. 10) | LDL value / LDL cholesterol level (in words) [1] | expression of HMG-CoA synthase at mRNA level (HMG-CoA synthase; listed as Propionate) | cholesterol concentration in back fat (pigs) | cholesterol content in the liver (pigs) | total cholesterol (pigs) | serum cholesterol level (patients; one case) | HDL serum cholesterol concentration (patients; second case) | LDL cholesterol ([2]; propionate alone, High Fat (60 KJ % fat content), FIG. 2) | LDL cholesterol ([2]; propionic acid additionally administered to atorvastatin, High Fat Diet, FIG. 3) | expression of PCSK9 (PCSK9; listed as Propionates) | cholesterol-lowering effect (LDL cholesterol) [3] | expression of HMG-CoA reductase (HMG-CoA reductase) | expression of HMG-CoA reductase (HMG-CoA reductase; listed as Propionate) | liver cholesterol levels (rats) | total cholesterol ([4]; rats consuming cholesterol-rich food, about 100 mg per day) | total cholesterol ([4]; rats fed a normal diet)
1 | CC(C)c1c(C(=O)Nc2ccccc2)c(-c2ccccc2)c(-c2ccc(F)cc2)n1CC[C@@H](O)C[C@@H](O)CC(=O)O [atorvastatin, reference compound] | but not by atorvastatin | Neither the propionic acid nor the atorvastatin has an effect | increased expression; also recorded: increase in PCSK9 expression | – | – | – | – | – | – | – | – | – | – | – | – | – | – | – | – | –
2 | CCC(=O)O [propionic acid, Propionic acid] | negatively regulated; also recorded: reduced expression | Neither the propionic acid nor the atorvastatin has an effect | no influence | ~40% | the LDL value was reduced | significantly down-regulated; also recorded: much more pronounced than that of atorvastatin | significantly higher cholesterol concentration | slight increase | reduced total cholesterol | slight reduction | increased | reduction of LDL cholesterol | trend towards further reduction of LDL cholesterol | do not have an effect | cholesterol-lowering effect | negatively regulated; also recorded: reduced expression | significantly down-regulated | – | – | –
3 | CCC(=O)[O-].[Na+] [sodium propionate] | – | – | – | – | further significantly reduced | – | – | – | – | – | – | – | – | – | – | – | – | only insignificantly | significant reduction in total cholesterol | practically no effect
